# Patent US10501421B1, “Substituted benzimidazoles as modulators of Ras signaling” (VANDERBILT UNIVERSITY, priority 2017, dated 2019)
# pEC50: −log10 of the molar value. Structures can show the parent of a compound that is named as a salt.
# Target: Ras GEF SOS (Son of Sevenless) (Homo sapiens, UniProt Q07889)
# Experiment: SOS-mediated nucleotide exchange on Ras (BODIPY-GDP fluorescence)
# Format: biochemical
# Conditions: SOS-mediated exchange of BODIPY-GDP for GTP on Ras
# Experimental: Compounds of the present invention were tested for their ability to modify the rate at which Ras exchanges a labeled nucleotide guanosine diphosphate (GDP) analog for guanosine triphosphate (GTP). Briefly, test compounds, then GTP and the Ras GEF SOS (Son of Sevenless) are added to a buffered solution containing Ras protein loaded with BODIPY-GDP. Changes in fluoresence indicating exchange of the labeled GDP for GTP are monitored over time. Raw fluorescence data was fit to a single exponential decay function and derived rates were plotted as mean values. EC50 values were calculated by plotting mean derived rates as a function of compound concentration and fit using a four-parameter dose-response curve. This assay is performed in a method analogous to the assay disclosed in: Burns, M. C.; Sun, Q.; Daniels, R. N.; Camper, D. V.; Kennedy, J. P.; Phan, J.; Olejniczak, E. O.; Lee, T.; Waterson, A. G.; Rossanese, O. W.; Fesik, S. W. “Approach for targeting Ras with small molecules that activate SOS-mediated nucleotide exchange” Proc. Natl. Acad. Sci. 2014; 11(9): 3401-3406. PMCID: PMC3948241.
# Ras GEF SOS (Son of Sevenless), sequence (Q07889 564-1049 limits assumed): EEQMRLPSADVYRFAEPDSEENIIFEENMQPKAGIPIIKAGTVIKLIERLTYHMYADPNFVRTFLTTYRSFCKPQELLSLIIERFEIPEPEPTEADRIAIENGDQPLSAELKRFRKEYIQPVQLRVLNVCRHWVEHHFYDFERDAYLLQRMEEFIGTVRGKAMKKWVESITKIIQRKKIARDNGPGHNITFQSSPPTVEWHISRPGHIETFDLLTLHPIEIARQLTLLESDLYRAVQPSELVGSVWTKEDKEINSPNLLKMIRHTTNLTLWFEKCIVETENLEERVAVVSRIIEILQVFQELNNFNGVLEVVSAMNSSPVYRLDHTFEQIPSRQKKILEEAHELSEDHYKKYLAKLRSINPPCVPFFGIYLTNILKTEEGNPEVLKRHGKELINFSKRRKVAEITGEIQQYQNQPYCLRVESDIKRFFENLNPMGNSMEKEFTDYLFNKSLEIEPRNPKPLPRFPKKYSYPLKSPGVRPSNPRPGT
# Ras GEF SOS (Son of Sevenless), sequence (P01112 1-166 partner limits assumed): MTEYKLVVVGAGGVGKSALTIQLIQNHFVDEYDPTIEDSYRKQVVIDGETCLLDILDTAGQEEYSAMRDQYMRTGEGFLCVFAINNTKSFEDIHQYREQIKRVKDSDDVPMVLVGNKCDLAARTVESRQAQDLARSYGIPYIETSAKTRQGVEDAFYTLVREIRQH
row,SMILES,pEC50
1,"Cc1cc2nc(N)n(Cc3ccc(F)cc3)c2cc1C [Example 3, 1-(4-fluorobenzyl)-5,6-dimethyl-1H-benzo[d]imidazol-2-amine]",4.00 to 4.52
2,"Cc1cc2nc(N)n(Cc3ccc(Cl)cc3)c2cc1C [Example 5, 1-(4-chlorobenzyl)-5,6-dimethyl-1H-benzo[d]imidazol-2-amine]",4.00 to 4.52
3,"Cc1cc2nc(N)n(Cc3cc(F)cc(F)c3)c2cc1C [Example 6, 1-(3,5-difluorobenzyl)-5,6-dimethyl-1H-benzo[d]imidazol-2-amine]",4.00 to 4.52
4,"Fc1ccc(Cn2c(N3CCOCC3)nc3ccccc32)cc1Cl [Example 8, 4-(1-(3-chloro-4-fluorobenzyl)-1H-benzo[d]imidazol-2-yl)morpholine]",4.00 to 4.52
5,"Fc1ccc(Cn2c(N3CCOCC3)nc3ccccc32)cc1 [Example 9, 4-(1-(4-fluorobenzyl)-1H-benzo[d]imidazol-2-yl)morpholine]",4.00 to 4.52
6,"Fc1cc(F)cc(Cn2c(N3CCOCC3)nc3ccccc32)c1 [Example 13, 4-(1-(3,5-difluorobenzyl)-1H-benzo[d]imidazol-2-yl)morpholine]",4.00 to 4.52
7,"Cc1cc2nc(NCCO)n(Cc3ccc(F)cc3)c2cc1C [Example 23, 2-((1-(4-fluorobenzyl)-5,6-dimethyl-1H-benzo[d]imidazol-2-yl)amino)ethan-1-ol]",4.00 to 4.52
8,"Cc1cc2nc(N3CCN(C)CC3)n(Cc3ccc(F)c(Cl)c3)c2cc1C [Example 27, 1-(3-chloro-4-fluorobenzyl)-5,6-dimethyl-2-(4-methylpiperazin-1-yl)-1H-benzo[d]imidazole trifluoroacetate]",4.00 to 4.52
9,"Cc1cc2nc(NCCN3CCOCC3)n(Cc3ccc(F)cc3)c2cc1C [Example 29, 1-(4-fluorobenzyl)-5,6-dimethyl-N-(2-morpholinoethyl)-1H-benzo[d]imidazol-2-amine trifluoroacetate]",4.00 to 4.52

# Results, then the compound that gave them:
row,pEC50,SMILES
1,4.00 to 4.52,"Nc1nc2ccccc2n1Cc1ccc(F)cc1 [Example 1, 1-(4-fluorobenzyl)-1H-benzo[d]imidazol-2-amine]"
2,4.00 to 4.52,"Nc1nc2ccccc2n1Cc1ccc(F)c(Cl)c1 [Example 2, 1-(3-chloro-4-fluorobenzyl)-1H-benzo[d]imidazol-2-amine]"
3,5.30 to 6.00,"Clc1ccc(Cn2c(N3CCNCC3)nc3ccccc32)cc1 [Example 11, 1-(4-chlorobenzyl)-2-(piperazin-1-yl)-1H-benzo[d]imidazole trifluoroacetate]"
4,4.52 to 5.30,"NCCNc1nc2ccccc2n1Cc1ccc(Cl)cc1 [Example 12, N^1-(1-(4-chlorobenzyl)-1H-benzo[d]imidazol-2-yl)ethane-1,2-diamine trifluoroacetate]"
5,4.52 to 5.30,"Fc1cc(F)cc(Cn2c(N3CCNCC3)nc3ccccc32)c1 [Example 14, 1-(3,5-difluorobenzyl)-2-(piperazin-1-yl)-1H-benzo[d]imidazole trifluoroacetate]"
6,4.52 to 5.30,"NCCNc1nc2ccccc2n1Cc1cc(F)cc(F)c1 [Example 15, N^1-(1-(3,5-difluorobenzyl)-1H-benzo[d]imidazol-2-yl)ethane-1,2-diamine trifluoroacetate]"
7,5.30 to 6.00,"Cc1cc2nc(NCCN(C)C)n(Cc3ccc(F)c(Cl)c3)c2cc1C [Example 28, N^1-(1-(3-chloro-4-fluorobenzyl)-5,6-dimethyl-1H-benzo[d]imidazol-2-yl)-N^2,N^2-dimethylethane-1,2-diamine trifluoroacetate]"
8,4.52 to 5.30,"Cc1cc2nc(NCCN3CCOCC3)n(Cc3ccc(F)c(Cl)c3)c2cc1C [Example 30, 1-(3-chloro-4-fluorobenzyl)-5,6-dimethyl-N-(2-morpholinoethyl)-1H-benzo[d]imidazol-2-amine trifluoroacetate]"
9,4.52 to 5.30,"Cc1cc2nc(N3CCNCC3)n(Cc3cccc(C(F)(F)F)c3)c2cc1C [Example 32, 5,6-dimethyl-2-(piperazin-1-yl)-1-(3-(trifluoromethyl)benzyl)-1H-benzo[d]imidazole trifluoroacetate]"
